Measured values published in patent US20260028390A1, “ALPHA1-ANTITRYPSIN FOR USE IN THE TREATMENT OF DISEASES OR DISORDERS OF THE NERVOUS SYSTEM SUCH AS CHRONIC INFLAMMATORY DEMYELINATING POLYNEUROPATHY” (Ageronix SA, priority 2022, published 2026).
Where “and” joins values, the source holds several entries; their conditions need not be identical. Identical values can stand only once.

Legend:
Format in all cases: in vivo
CIDP mice [1] = assay: Grip strength test, CIDP mouse model; conditions: for Grip strength (Mean ± SD): CIDP mice; for Grip strength, group Mean: group mean of 4 animals; for Grip strength, Mean/animal: per animal; for Grip strength, Mean/animal / Grip strength, set 1 / Grip strength, set 2 / Grip strength, set 3: listed as hAAT; for Grip strength, set 1 / Grip strength, set 2 / Grip strength, set 3: raw data per animal
Experimental: (§1) C57BL/6 mice were received at 8 weeks of age and housed under controlled conditions for the duration of the study. Three groups of 4 animals each were assigned to the following subcutaneous treatments twice daily at 7:00 AM and 7:00 PM for 2 weeks, from 20 to 35 days after the start of disease induction: • Wild type (WT) mice receiving the vehicle, 0.9% NaCl (positive control) • CIDP mice receiving the vehicle, 0.9% NaCl (negative control) • CIDP mice receiving human AAT (AAT), 50 mg/kg per injection
(§2) Disease induction consisted in subcutaneous injection of mouse sciatic nerve homogenate in phosphate buffer saline (PBS)+Freund's adjuvant mixture at 10 mL/kg. For each treatment, 3 different body sites injections were performed. Control mice also received three subcutaneous injections of PBS+Freund's adjuvant at the same 3 different body sites.
(§3) On the first (Day 20) and last (Day 35) day of treatment, the neuromuscular and performance of animals was tested with a rotarod test, grip test and a sensory test using the Von Frey filament test, as well as sciatic nerve electrophysiology test. After the last treatment at Day 35, these tests were repeated, animals were sacrificed and the left sciatic nerve was sampled for histological evaluation of the number and size of […].

[2] = system: C3-PMP22 transgenic mice (CMT1A); assay: Sciatic nerve electrophysiology (EMG), CMT1A mouse study (50 mg/kg twice daily); conditions: for Compound muscle action potential (Mean ± SEM) / Nerve conduction velocity (Mean ± SEM): CMT1A + AAT; for Amplitude, MEAN / Amplitude, individual mice / Conduction velocity, MEAN / Conduction velocity, individual mice / T1 distal, individual mice / T2 proximal, individual mice: CMT1A + hAAT
Text: (§4) As a murine model of CMT1A we used C3-PMP22 transgenic mice (B6.Cg-Tg(PMP22)C3Fbas/J, The Jackson Laboratory) which express three copies of a wild-type human peripheral myelin protein 22 (PMP22) gene (Verhamme, Camiel, et al. Journal of Neuropathology & Experimental Neurology 70.5 (2011): 386-398). Mice were housed in macrolon cages with filter hoods, in a continuously air-filtered room, thereby avoiding contamination. During experiments, paired animals were caged at a constant temperature with a day/night cycle of 12/12 hours. Animals were fed (control tap water and nutrition) ad libitum. Animal protocol is approved by the Animal Studies Committee of Languedoc Roussillon. This protocol and the laboratory procedures comply with French legislation, which implements the European Directives (Reference Number: D3417223, APAFIS #23920-2020020320279696 v3). Animal health was followed on a daily basis to ensure that only animals in good health enter the testing procedures and follow up the study.
(§5) Animals were split in 3 groups (wild-type control (subcutaneous 0.9% NaCl), CMT1A-vehicle (subcutaneous 0.9% NaCl), CMT1A-human alpha-1 antitrypsin (subcutaneous, twice daily, 50 mg/kg per injection)) of 3 mice each (3 weeks old males of 18±2.5 g at the beginning of study) and all went through the following protocol after 7 days of acclimation on site.
(§6) On the first and last day of treatment, the neuromuscular performance of animals was tested with a rotarod test, grip test and sciatic nerve electrophysiology test. After the last treatment at 8 weeks, these tests were repeated, and animals were sacrificed and the left sciatic nerve was sampled for histological evaluation of the number and size of […].
Sciatic nerve electrophysiology (EMG) provides sensitive and quantitative approach to measure compound muscle action potential and nerve conduction velocity amplitude in the animals and was done by stimulation of the sciatic nerve. Similar compound muscle action potential (CMAP) amplitudes were observed between groups at the baseline (6 weeks old).

[3] = Plasma AAT levels, CMT1A mouse study (50 mg/kg twice daily); conditions: CMT1A + AAT group
Experimental: as §5
Plasma levels of AAT were evaluated every 5 days from the first day of treatment to the last treatment day.
AAT was not detected in plasma of the wild type control and CMT1A mice treated with vehicle at the analyzed time points (day 14, day 19, day 24 and day 29). The AAT was detected in plasma of CMT1A+AAT group at a mean of 6.07 μg/mL, 6.99 μg/mL, 8.14 μg/mL and 5.22 μg/mL at day 14, day 19, day 24 and day 29 respectively.

[4] = system: C3-PMP22 transgenic mice (CMT1A); assay: Grip strength test, CMT1A mouse study (50 mg/kg twice daily); conditions: for Grip strength (Mean ± SEM) / Grip strenght, Mean/animal / Grip strenght, set 1, individual animals / Grip strenght, set 2, individual animals / Grip strenght, set 3, individual animals: CMT1A + AAT
Text: as §4, §5, §6
Grip strength test measures neuromuscular strength by assessing the animal's grasp of a metal grid. […] At the baseline, the differences of grip strengths between groups were not statistically significant.

CIDP mice [5] = assay: Rotarod test, CIDP mouse model; conditions: for Rotarod latency (Mean ± SEM): CIDP mice; for Rotarod latency, group Mean: group mean of 4 animals; for Rotarod latency, Mean/animal: per animal; for Rotarod latency, Mean/animal / Rotarod latency, set 1 / Rotarod latency, set 2 / Rotarod latency, set 3: listed as hAAT; for Rotarod latency, set 1 / Rotarod latency, set 2 / Rotarod latency, set 3: raw data per animal
Experimental: as §1, §2, §3

plasma TNFα = assay: Plasma TNFα concentration, CMT1A mouse study (50 mg/kg twice daily); conditions: for Plasma TNFα concentration (Mean ± SEM): CMT1A mice
Experimental: as §5
Starting from the age of 4 weeks, animals were subjected to blood samplings for the determination of interleukin-6 (IL-6) and tumor necrosing factor alpha (TNFα) levels, as described in FIG. 16.

[6] = CIDP + AAT 50 mg/kg sc twice daily, Day 35
[7] = Day 35, AAT 50 mg/kg sc twice daily
[8] = CMT1A mice treated with AAT, 8 weeks old

alpha1-antitrypsin (AAT) protein
grip strength compared to the vehicle treated group (CIDP mice [1]; [6]): increase | Grip strength (Mean ± SD) (CIDP mice [1]; Day 20 (baseline)): 2.89 ± 0.32 newtons | Grip strength (Mean ± SD) (CIDP mice [1]; [7]): 3.59 ± 0.35 newtons | Grip strength, group Mean (CIDP mice [1]; Baseline (Day 20)): 2.89 Newton | Grip strength, group Mean (CIDP mice [1]; Day 35): 3.59 Newton | Grip strength, Mean/animal (CIDP mice [1]; Baseline (Day 20)): 2.46 Newton and 3.19 Newton and 2.83 Newton and 3.08 Newton | Grip strength, Mean/animal (CIDP mice [1]; Day 35): 3.68 Newton and 3.69 Newton and 3.91 Newton and 3.10 Newton | Grip strength, set 1 (CIDP mice [1]; Baseline (Day 20)): 2.92 Newton and 3.06 Newton and 2.89 Newton and 3.50 Newton | Grip strength, set 2 (CIDP mice [1]; Baseline (Day 20)): 2.43 Newton and 2.09 Newton and 2.45 Newton and 2.62 Newton | Grip strength, set 3 (CIDP mice [1]; Baseline (Day 20)): 2.04 Newton and 4.42 Newton and 3.14 Newton and 3.13 Newton | Grip strength, set 1 (CIDP mice [1]; Day 35): 4.92 Newton and 4.55 Newton and 5.15 Newton and 3.47 Newton | Grip strength, set 2 (CIDP mice [1]; Day 35): 3.53 Newton and 2.00 Newton and 3.04 Newton and 2.61 Newton | Grip strength, set 3 (CIDP mice [1]; Day 35): 2.58 Newton and 4.52 Newton and 3.53 Newton and 3.23 Newton | NCV compared to the vehicle treated group ([2]; CMT1A + AAT treated group, 8 weeks old): increase | Compound muscle action potential (Mean ± SEM) ([2]; 6 weeks old): 6.47 ± 0.30 mV | Nerve conduction velocity (Mean ± SEM) ([2]; 6 weeks old): 24.91 ± 4.13 m/s | Nerve conduction velocity (Mean ± SEM) ([2]; 8 weeks old): 20.89 ± 1.63 m/s | Compound muscle action potential (Mean ± SEM) ([2]; 8 weeks old, p < 0.05 vs CMT1A + vehicle): 5.63 ± 1.18 mV | Amplitude, MEAN ([2]; 6 weeks old (baseline)): 6.471 mV | Amplitude, individual mice ([2]; 6 weeks old (baseline)): 7.030 mV and 6.025 mV and 6.359 mV | Conduction velocity, MEAN ([2]; 6 weeks old (baseline)): 24.909 m/s | Conduction velocity, individual mice ([2]; 6 weeks old (baseline)): 31.277 m/s and 17.182 m/s and 26.268 m/s | T1 distal, individual mice ([2]; 6 weeks old (baseline)): 0.00202 s and 0.00207 s and 0.0016 s | T2 proximal, individual mice ([2]; 6 weeks old (baseline)): 0.0025 s and 0.00295 s and 0.00217 s | Amplitude, MEAN ([2]; 8 weeks old): 5.627 mV | Amplitude, individual mice ([2]; 8 weeks old): 3.799 mV and 5.260 mV and 7.822 mV | Conduction velocity, MEAN ([2]; 8 weeks old): 20.892 m/s | Conduction velocity, individual mice ([2]; 8 weeks old): 23.904 m/s and 18.310 m/s and 20.464 m/s | T1 distal, individual mice ([2]; 8 weeks old): 0.00251 s and 0.00236 s and 0.00228 s | T2 proximal, individual mice ([2]; 8 weeks old): 0.00313 s and 0.00318 s and 0.00302 s | EMG parameters compared to the control [2, 8]: improvement | AAT detected in plasma (mean) ([3]; day 14): 6.07 µg/mL | AAT detected in plasma (mean) ([3]; day 19): 6.99 µg/mL | AAT detected in plasma (mean) ([3]; day 24): 8.14 µg/mL | AAT detected in plasma (mean) ([3]; day 29): 5.22 µg/mL | Grip strength (Mean ± SEM) ([4]; 6 weeks old): 5.86 ± 0.57 newtons | Grip strenght, Mean/animal ([4]; 6 weeks old (baseline)): 5.10 Newtons and 6.97 Newtons and 5.51 Newtons | Grip strenght, set 1, individual animals ([4]; 6 weeks old (baseline)): 5.84 Newtons and 7.10 Newtons and 5.94 Newtons | Grip strenght, set 2, individual animals ([4]; 6 weeks old (baseline)): 7.62 Newtons and 7.19 Newtons and 3.08 Newtons | Grip strenght, set 3, individual animals ([4]; 6 weeks old (baseline)): 1.82 Newtons and 6.62 Newtons and 7.52 Newtons | Grip strenght, Mean/animal ([4]; 8 weeks old): 5.45 Newtons and 4.86 Newtons and 3.88 Newtons | Grip strenght, set 1, individual animals ([4]; 8 weeks old): 6.55 Newtons and 4.01 Newtons and 2.76 Newtons | Grip strenght, set 2, individual animals ([4]; 8 weeks old): 4.38 Newtons and 6.93 Newtons and 3.67 Newtons | Grip strenght, set 3, individual animals ([4]; 8 weeks old): 5.43 Newtons and 3.63 Newtons and 5.21 Newtons | Grip strength (Mean ± SEM) ([4]; 8 weeks old): 4.73 ± 0.46 newtons | grip strength compared to the control group [4, 8]: improvement | rotarod latency compared to the vehicle treated group (CIDP mice [5]; [6]): increase | Rotarod latency (Mean ± SEM) (CIDP mice [5]; Day 20 (baseline, first treatment day)): 25.96 ± 6.16 s | Rotarod latency (Mean ± SEM) (CIDP mice [5]; [7]): 34.96 ± 9.47 s | Rotarod latency, group Mean (CIDP mice [5]; Baseline (Day 20)): 25.96 s | Rotarod latency, group Mean (CIDP mice [5]; Day 35): 34.96 s | Rotarod latency, Mean/animal (CIDP mice [5]; Baseline (Day 20)): 17.68 s and 29.19 s and 31.82 s and 25.13 s | Rotarod latency, Mean/animal (CIDP mice [5]; Day 35): 38.90 s and 36.28 s and 43.23 s and 21.41 s | Rotarod latency, set 1 (CIDP mice [5]; Baseline (Day 20)): 19.1 s and 28.0 s and 28.7 s and 24.1 s | Rotarod latency, set 2 (CIDP mice [5]; Baseline (Day 20)): 17.7 s and 26.7 s and 33.0 s and 24.0 s | Rotarod latency, set 3 (CIDP mice [5]; Baseline (Day 20)): 16.2 s and 32.9 s and 33.8 s and 27.3 s | Rotarod latency, set 1 (CIDP mice [5]; Day 35): 32.02 s and 44.79 s and 52.44 s and 37.74 s | Rotarod latency, set 2 (CIDP mice [5]; Day 35): 36.34 s and 31.48 s and 34.61 s and 19.21 s | Rotarod latency, set 3 (CIDP mice [5]; Day 35): 48.35 s and 32.56 s and 42.63 s and 7.29 s | effect on plasma TNFα levels (plasma TNFα; CMT1A + AAT, day 14 and day 29): no effect | Plasma TNFα concentration (Mean ± SEM) (plasma TNFα; Day 1 (baseline)): 2.94 ± 0.17 pg/mL | Plasma TNFα concentration (Mean ± SEM) (plasma TNFα; Day 8): 3.70 ± 0.41 pg/mL | Plasma TNFα concentration (Mean ± SEM) (plasma TNFα; Day 14): 5.15 ± 0.393 pg/mL | Plasma TNFα concentration (Mean ± SEM) (plasma TNFα; Day 29): 10.67 ± 0.833 pg/mL
